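Results reflect a 48-hour exposure of cells in 96-well plates to compound at five concentrations. The concentration for 50% growth inhibition is given as GI50.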 Activity calls are given as the source filed them. Cut-off read from the data, not from the text of the source: active = GI50 up to about 1.1 µM and inactive = higher.
Assays:
Test in all cases: DTP human tumour cell line panel, 48 h
[1] = system: HL-60
[2] = system: A549
[3] = system: RPMI-8226
[4] = system: HCC 2998
[5] = system: HOP-92
[6] = system: TK-10
[7] = system: A498
[8] = system: HOP-62
[9] = system: NCI-H460
[10] = system: SNB-75
[11] = system: HCT-15
[12] = system: SK-OV-3
[13] = system: KM12
[14] = system: LOX IMVI
[15] = system: SNB-19
[16] = system: Malme-3M
[17] = system: MOLT-4
[18] = system: U-251
[19] = system: EKVX
[20] = system: UACC-257

Compound | GI50 [1] | GI50 [2] | GI50 [3] | GI50 [4] | GI50 [5] | GI50 [6] | GI50 [7] | GI50 [8] | GI50 [9] | GI50 [10] | GI50 [11] [µM] | GI50 [12] | GI50 [13] | GI50 [14] | GI50 [15] | GI50 [16] | GI50 [17] | GI50 [18] | GI50 [19] | GI50 [20]
ClCCCN1CCCCC1CCl (configuration not stated) | 52.7 µM (inactive) | > 100 µM (inactive) | > 100 µM (inactive) | > 100 µM (inactive) | > 100 µM (inactive) | > 100 µM (inactive) | > 100 µM (inactive) | 90.8 µM (inactive) | 10.2 µM (inactive) | 68.4 µM (inactive) | > 100 | > 100 µM (inactive) | > 100 µM (inactive) | > 100 µM (inactive) | > 100 µM (inactive) | > 100 µM (inactive) | 39.4 µM (inactive) | > 100 µM (inactive) |  | 
N#Cc1nc(-c2cccc(-c3nc(C#N)c(N)o3)n2)oc1N | 64.7 µM (inactive) | > 100 µM (inactive) | > 100 µM (inactive) | > 100 µM (inactive) | > 100 µM (inactive) | > 100 µM (inactive) | > 100 µM (inactive) | > 100 µM (inactive) | > 100 µM (inactive) | > 100 µM (inactive) | > 100 | > 100 µM (inactive) | > 100 µM (inactive) | > 100 µM (inactive) | > 100 µM (inactive) | > 100 µM (inactive) | > 100 µM (inactive) | > 100 µM (inactive) | > 100 µM (inactive) | > 100 µM (inactive)
NC1c2ccccc2Nc2ccccc21 | 4.3 µM (inactive) | 4.26 µM (inactive) | 4.56 µM (inactive) | 6.46 µM (inactive) | 3.27 µM (inactive) | 5.82 µM (inactive) | 8.34 µM (inactive) | 6.15 µM (inactive) | 2.76 µM (inactive) | 11.8 µM (inactive) | 3.31 | 4.67 µM (inactive) | 4.22 µM (inactive) | 3.53 µM (inactive) | 5.18 µM (inactive) | 4.97 µM (inactive) | 2.94 µM (inactive) |  | 5.71 µM (inactive) | 5.21 µM (inactive)

— ChEMBL document CHEMBL1201862, “PubChem BioAssay data set” (2004)
